Assay results: publication PMC3958311 (EMBO Molecular Medicine, 2014)
≈ marks a conversion by molar mass, not a printed value. Where two headings read alike, the source gives them in different places.

How the values were obtained:
[1] = system: M. tuberculosis H37Rv; assay: MIC by resazurin reduction microplate assay (REMA); type: cell-based, Mycobacterium tuberculosis
[2] = system: C. glutamicum ATCC 13032; assay: MIC99 by REMA; type: cell-based, Corynebacterium glutamicum
[3] = system: M. marinum Strain M; assay: MIC99 by REMA; type: cell-based, Mycobacterium marinum
[4] = system: M. vaccae ATCC 15483; assay: MIC99 by REMA; type: cell-based
[5] = system: M. bovis BCG Pasteur; assay: microbe, parasite or virus in culture; type: cell-based, Mycobacterium bovis BCG
[6] = system: M. smegmatis MN47; type: cell-based; details: M. smegmatis MN47, DprE1 Cys394Gly
[7] = system: M. bolletii 1999-0888; assay: MIC99 by REMA; type: cell-based
[8] = system: M. smegmatis GM22; assay: microbe, parasite or virus in culture; type: cell-based; details: for MIC99: M. smegmatis GM22, overproduces NfnB nitroreductase
[9] = system: M. massiliense 2005-0484; assay: MIC99 by REMA; type: cell-based
[10] = system: M. smegmatis mc^2155; assay: MIC99 by REMA; type: cell-based, Mycobacterium smegmatis
[11] = system: M. tuberculosis MDR_CHUV; assay: MIC99 by REMA; type: cell-based, Mycobacterium tuberculosis
[12] = system: M. abscessus 2005-0524; assay: MIC99 by REMA; type: cell-based
[13] = system: C. diphtheriae DSM 44123; assay: MIC99 by REMA; type: cell-based, Corynebacterium diphtheriae
[14] = system: M. bovis BCG BN2; type: cell-based, Mycobacterium bovis BCG
[15] = system: M. avium ATCC 15769; assay: MIC99 by REMA; type: cell-based
[16] = system: M. smegmatis MN84; type: cell-based; details: M. smegmatis MN84, DprE1 Cys394Ser
[17] = in vivo; details: mouse, in vivo
Description: Table S5. Principal pharmacokinetic properties1
1 See Figure S5 for primary data.
Compound levels were measured in serum from individual female mice (3/time point) that had received a single dose of 25 mg/kg. Maximum concentration (Cmax); area under the curve (AUC); apparent clearance.
Comparative pharmacokinetic analysis. After receiving a single dose
(25 mg/kg) of PBTZ169 or BTZ043 by gavage, groups of three female mice were sacrificed at the times indicated, blood was obtained by cardiac puncture and the drug levels in serum determined by LC-MS/MS technique (limit of quantification 10 μg/L).

[18] = molecular target: M. tuberculosis DprE1 (Mycobacterium tuberculosis, UniProt P9WJF1); assay: DprE1 inhibition, two step peroxidase-coupled assay with Amplex Red; type: biochemical
[19] = human
[20] = system: M. tuberculosis clinical isolate 6374; assay: Drug susceptibility testing on solid Löwenstein-Jensen medium; type: cell-based; details: Mycobacterium tuberculosis
[21] = system: M. tuberculosis clinical isolate 6341; assay: as above; type: cell-based; details: Mycobacterium tuberculosis
[22] = in vitro; details: human, microsomes
[23] = system: M. marinum strain E11; assay: Zebrafish embryo infection model, M. marinum strain E11; details: 25 nM for 5, 4 or 3 days
Description: The number of colony forming units (CFU) per embryo was determined and compared to the level of fluorescence.
Zebrafish embryos were infected with either M. marinum strain M (A, B) or E11 (C, D). […] The bacterial burden was assessed by fluorescence microscopy and customized software to quantify the number of fluorescent pixels (A and C), and by enumeration of the CFU in lysed embryos (B and D), immediately after imaging was performed. In B and D, each data point represents the mean number of CFU per embryo of 3 embryo extracts plated, the bars indicate means and s.e.m. after log transformation. […]
Volumes of 1 nl of bacterial suspension, containing 50-200 CFU were injected into the caudal vein of embryonic zebrafish at approximately 28 h post fertilization. At 5 days post infection, embryos were monitored using fluorescence microscopy (Leica MZ16FA). Brightfield and fluorescent images were generated with a Leica DFC420C camera and subsequently fluorescent images were analyzed with customized software to quantify infection levels.
Twelve infected embryos were incubated at 28°C in petri dishes of 4 cm diameter containing 4 ml sterilized egg water (60 μg/ml instant ocean sea salts) with 0.003% 1-phenyl-2-thiourea (Sigma) to prevent melanization. All drug treatment experiments were performed in egg water containing 1% DMSO and analyzed at 5 days post infection (dpi). […]

[24] = system: M. tuberculosis H37Rv; type: in vivo, BALB/c mice; details: mouse, in vivo
[25] = system: M. tuberculosis clinical isolate 4328; assay: Drug susceptibility testing on solid Löwenstein-Jensen medium; type: cell-based; details: Mycobacterium tuberculosis
[26] = in vitro; details: mouse, microsomes
[27] = system: M. marinum strain M; type: in vivo, zebrafish (Danio rerio); details: zebrafish, in vivo
[28] = system: M. tuberculosis clinical isolate 5253; assay: Drug susceptibility testing on solid Löwenstein-Jensen medium; type: cell-based; details: Mycobacterium tuberculosis
[29] = system: M. tuberculosis clinical isolate 7384; assay: as above; type: cell-based; details: Mycobacterium tuberculosis
[30] = mouse
[31] = system: M. tuberculosis H37Rv; assay: Drug susceptibility testing on solid Löwenstein-Jensen medium; type: cell-based; details: Mycobacterium tuberculosis, H37RV
[32] = system: M. tuberculosis clinical isolate 6412; assay: as above; type: cell-based; details: Mycobacterium tuberculosis
[33] = system: M. tuberculosis H37Rv; assay: In vitro combination studies, REMA checkerboard; type: cell-based
[34] = system: zebrafish embryos; type: in vivo, zebrafish (Danio rerio); details: zebrafish, in vivo
Description: On examination of infected zebrafish embryos treated with BTZ043 it was observed that the compound affected embryo development (Fig 6A–G) especially at concentrations above 25 nM. […] These defects were also observed when uninfected embryos were exposed to BTZ043.
Figure 6 Effect of BTZ043 on M. marinum infected zebrafish embryo development. A–D M. marinum infected zebrafish embryos were treated with BTZ043 for 5 days at the concentrations indicated and photographed using a Leica DFC420C camera. The M strain was used for infection. E–F Images of the notochord from untreated and treated zebrafish, arrows indicate developmental abnormalities. G Analysis of zebrafish embryos displaying developmental abnormalities treated with BTZ043 (BTZ) or PBTZ169 (PBTZ) at the concentrations indicated.

[35] = system: M. tuberculosis clinical isolate 5055; assay: Drug susceptibility testing on solid Löwenstein-Jensen medium; type: cell-based; details: Mycobacterium tuberculosis
[36] = system: HepG2 human cell line
[37] = system: M. tuberculosis clinical isolate 6448; assay: Drug susceptibility testing on solid Löwenstein-Jensen medium; type: cell-based; details: Mycobacterium tuberculosis
[38] = molecular target: T1, purified recombinant M. smegmatis NfnB (Mycolicibacterium smegmatis, UniProt A0R6D0); assay: NfnB-mediated nitroreduction followed by LC-MS; type: biochemical
T1 construct: made in house

[39] = system: M. tuberculosis clinical isolate 6418; assay: Drug susceptibility testing on solid Löwenstein-Jensen medium; type: cell-based; details: Mycobacterium tuberculosis
[40] = Mycobacterium tuberculosis, H37RV

Sequence of M. tuberculosis DprE1 (P9WJF1 whole entry, looked up): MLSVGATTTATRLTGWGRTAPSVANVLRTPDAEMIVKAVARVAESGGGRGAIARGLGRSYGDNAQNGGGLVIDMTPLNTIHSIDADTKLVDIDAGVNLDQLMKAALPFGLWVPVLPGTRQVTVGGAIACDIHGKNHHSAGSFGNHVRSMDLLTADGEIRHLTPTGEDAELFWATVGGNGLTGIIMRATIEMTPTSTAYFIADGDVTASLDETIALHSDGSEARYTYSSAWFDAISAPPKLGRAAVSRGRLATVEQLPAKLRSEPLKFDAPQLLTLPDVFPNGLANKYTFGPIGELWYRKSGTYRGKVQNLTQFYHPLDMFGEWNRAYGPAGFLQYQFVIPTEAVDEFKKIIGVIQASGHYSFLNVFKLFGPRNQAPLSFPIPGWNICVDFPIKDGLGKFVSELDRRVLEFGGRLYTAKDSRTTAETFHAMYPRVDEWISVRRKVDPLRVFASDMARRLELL
T1 sequence (A0R6D0 whole entry): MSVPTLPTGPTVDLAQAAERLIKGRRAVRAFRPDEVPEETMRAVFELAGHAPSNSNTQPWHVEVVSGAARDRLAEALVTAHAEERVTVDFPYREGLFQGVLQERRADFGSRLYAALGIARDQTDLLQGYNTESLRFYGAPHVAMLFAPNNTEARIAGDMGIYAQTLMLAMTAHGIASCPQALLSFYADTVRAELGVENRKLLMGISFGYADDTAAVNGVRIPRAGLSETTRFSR

moxifloxicin [MXF]
MIC99 [1]: 0.03 µg/mL | MIC99 [2]: 0.31 µg/mL | MIC99 [3]: 0.1 µg/mL | MIC99 [4]: 0.63 µg/mL | MIC99 [5]: 0.02 µg/mL | MIC99 [6]: 0.06 µg/mL | MIC99 [7]: 0.94 µg/mL | MIC99 [8]: 0.06 µg/mL | MIC99 [9]: 0.96 µg/mL | MIC99 [10]: 0.06 µg/mL | MIC99 [11]: 0.03 µg/mL | MIC99 [12]: 0.78 µg/mL | MIC99 [13]: 0.02 µg/mL | MIC99 [14]: 0.03 µg/mL | MIC99 [15]: 0.47 µg/mL | MIC99 [16]: 0.06 µg/mL

O=c1nc(N2CCN(CC3CCCCC3)CC2)sc2c([N+](=O)[O-])cc(C(F)(F)F)cc12 [PBTZ169]
time the serum level remains well above MIC ([17]; female): > 21 h | Cmax ([17]; female, po, 25 mg/kg): 1850 ng/mL | half-life ([17]; female, po, 25 mg/kg): 1.85 h | k el ([17]; female, po, 25 mg/kg): 0.000104 s⁻¹ | AUC ([17]; po, 25 mg/kg): 193487 µg·min/L | MIC [1, 40]: ≤ 0.00019 µg/mL | MIC99 [1, 40]: 0.0003 µg/mL (≈ 0.000657 µM) | MIC ([1]; Mycobacterium tuberculosis, H37RV, read-out: MIC M. tuberculosis): ≤ 0.00019 µg/mL | MIC99 ([2]; Corynebacterium glutamicum, ATCC13032): 0.013 µg/mL (≈ 0.0285 µM) | concentration giving full inhibition of DprE1 [18]: 5 µM | clearance on incubation with microsomes (in words) [19]: medium clearance values | MIC [20]: 0.063 µg/mL (≈ 0.138 µM) | MIC99 ([3]; Mycobacterium marinum): 0.0003 µg/mL (≈ 0.000657 µM) | MIC [21]: 0.031 µg/mL (≈ 0.0679 µM) | microsomal CLint [22]: 24.8 µL/min/mg | MIC99 ([4]; Mycolicibacterium vaccae, ATCC15483): > 100 µg/mL | MIC99 ([5]; Mycobacterium tuberculosis variant bovis BCG, BCG): 0.0006 µg/mL (≈ 0.00131 µM) | decrease in number of CFU per embryo [23]: ~2 log units | MIC99 ([7]; Mycobacteroides abscessus, 19990888): > 100 µg/mL | MIC ([8]; Mycolicibacterium smegmatis, GM22, read-out: MIC for GM22): 0.005 µg/mL (≈ 0.011 µM) | MIC99 ([8]; Mycolicibacterium smegmatis, read-out: MIC99): 0.003 µg/mL (≈ 0.00657 µM) | MIC99 ([9]; Mycobacteroides abscessus, 20050484): > 100 µg/mL | MIC99 ([10]; Mycolicibacterium smegmatis, MC^2155): 0.0007 µg/mL (≈ 0.00153 µM) | activity in dose escalation study (in words) [24]: active at all the concentrations tested | reduction of CFU in the lungs in comparison to BTZ043 at the same dose [24]: > 0.5 log | reduction of bacterial burden in the spleens, fold more than BTZ043 [24]: 10 fold | MIC99 ([11]; Mycobacterium tuberculosis): 0.0004 µg/mL (≈ 0.000876 µM) | MIC [25]: 0.063 µg/mL (≈ 0.138 µM) | microsomal CLint [26]: 24.3 µL/min/mg | MIC99 ([12]; Mycobacteroides abscessus, 20050524): > 100 µg/mL | bacterial burden in infected zebrafish embryos (fluorescence) [27]: almost no bacteria were present | decrease in number of CFU per embryo [27]: about 3 log units | effect on the infection in zebrafish embryos [27]: no significant effect | MIC [28]: 0.063 µg/mL (≈ 0.138 µM) | MIC [29]: 0.063 µg/mL (≈ 0.138 µM) | MIC99 ([13]; Corynebacterium diphtheriae, DSM44123): 0.003 µg/mL (≈ 0.00657 µM) | clearance on incubation with microsomes (in words) [30]: medium clearance values | MIC99 [14]: >100 µg/mL | fold increased resistance conferred by the Cys387Ser mutation in DprE1 [14]: > 10 000 fold | MIC [31]: 0.031 µg/mL (≈ 0.0679 µM) | MIC [32]: 0.031 µg/mL (≈ 0.0679 µM) | ΣFIC (sum of the fractional inhibitory concentrations) [33]: 0.5 | developmental defects in zebrafish embryos (in words) [34]: no developmental defects were seen | MIC99 ([15]; Mycobacterium avium, ATCC15769): > 100 µg/mL | MIC [35]: 0.063 µg/mL (≈ 0.138 µM) | selectivity index ([36]; HepG2 cytotoxicity relative to MIC): > 10 000 | TD99 ([36]; human): > 200 µg/mL | MIC [37]: 0.063 µg/mL (≈ 0.138 µM) | NfnB-mediated reduction, species found by LC-MS [38]: the major species found in the LC-MS analysis was the original nitro form | MIC [39]: 0.063 µg/mL (≈ 0.138 µM)
